Consider 7 compounds from PMC6891286, “Towards the Development of an In vivo Chemical Probe for Cyclin G Associated Kinase (GAK)” (Molecules, 2019).

The nature of series [1]: Kinetic Solubility. The format is physicochemical. Conditions: pH 7.4, aqueous buffer, kinetic from dmso stock, PBS pH7.4 (100 µM).
For series [2], the target named is T1, GAK (Homo sapiens, UniProt O14976).
T1 sequence (O14976 1-1311): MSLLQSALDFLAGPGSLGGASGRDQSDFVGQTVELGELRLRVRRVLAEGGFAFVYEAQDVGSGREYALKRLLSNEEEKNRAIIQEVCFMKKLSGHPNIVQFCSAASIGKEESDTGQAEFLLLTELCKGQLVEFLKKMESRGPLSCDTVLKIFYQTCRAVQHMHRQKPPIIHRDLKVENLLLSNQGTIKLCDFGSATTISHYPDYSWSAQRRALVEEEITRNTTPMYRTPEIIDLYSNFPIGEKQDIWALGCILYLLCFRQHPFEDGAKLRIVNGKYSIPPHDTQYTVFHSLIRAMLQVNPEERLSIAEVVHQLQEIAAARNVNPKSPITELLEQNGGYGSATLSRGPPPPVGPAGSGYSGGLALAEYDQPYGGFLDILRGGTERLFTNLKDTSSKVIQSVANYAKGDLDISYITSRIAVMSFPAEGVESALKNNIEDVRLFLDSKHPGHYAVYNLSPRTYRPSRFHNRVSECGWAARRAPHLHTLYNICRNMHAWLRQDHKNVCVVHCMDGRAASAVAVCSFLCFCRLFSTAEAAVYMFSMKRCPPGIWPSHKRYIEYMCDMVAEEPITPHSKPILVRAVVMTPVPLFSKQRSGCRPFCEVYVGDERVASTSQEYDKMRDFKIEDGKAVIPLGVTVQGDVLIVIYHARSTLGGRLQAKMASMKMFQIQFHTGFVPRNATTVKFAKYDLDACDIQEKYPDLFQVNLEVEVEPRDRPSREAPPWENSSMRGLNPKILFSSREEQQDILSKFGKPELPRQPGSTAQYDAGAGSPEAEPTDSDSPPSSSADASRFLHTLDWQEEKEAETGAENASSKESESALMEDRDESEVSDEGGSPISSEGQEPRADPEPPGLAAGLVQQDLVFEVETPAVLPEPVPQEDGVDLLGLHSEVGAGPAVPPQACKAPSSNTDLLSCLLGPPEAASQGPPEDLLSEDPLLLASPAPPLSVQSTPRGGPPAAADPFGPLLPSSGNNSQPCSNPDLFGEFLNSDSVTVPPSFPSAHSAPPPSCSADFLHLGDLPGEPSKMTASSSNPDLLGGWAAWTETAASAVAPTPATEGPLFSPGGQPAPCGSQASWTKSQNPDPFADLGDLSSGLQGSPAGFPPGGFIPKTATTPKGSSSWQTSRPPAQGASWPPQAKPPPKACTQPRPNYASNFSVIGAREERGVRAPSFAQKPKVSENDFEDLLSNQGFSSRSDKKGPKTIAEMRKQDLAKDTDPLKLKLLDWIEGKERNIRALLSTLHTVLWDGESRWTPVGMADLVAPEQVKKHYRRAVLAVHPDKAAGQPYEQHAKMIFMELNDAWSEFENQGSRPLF
Description: TR-FRET ligand-binding displacement assay. Conditions: TR-FRET assay; read-out: Biochemical GAK Ki.

Series [3] is described as follows: mouse liver microsome metabolic stability. Particulars: for T1/2 Ratio: normalization with respect to internal control (propranolol); for CLint scaled / half-life: mouse. The procedure:
SGC-GAK-1 (1) was incubated with MLMs in the presence or absence of added NADPH, and the compound was quantified at various time points over an hour.
The metabolic stability of the 4-anilinoquinolines (8–13) were evaluated in MLMs (Table 1). Half-lives for metabolic clearance were normalized to propranolol in each experimental run to control for variations in the MLM preparations.
A general note: Liver microsomes are a subcellular fraction often used to study metabolism.

The target of series [4] is AAK1 (Homo sapiens, UniProt Q2M2I8). Description: NAK family TR-FRET binding displacement assay. Conditions: NAK family FRET screening.
AAK1, sequence (Q2M2I8 whole entry): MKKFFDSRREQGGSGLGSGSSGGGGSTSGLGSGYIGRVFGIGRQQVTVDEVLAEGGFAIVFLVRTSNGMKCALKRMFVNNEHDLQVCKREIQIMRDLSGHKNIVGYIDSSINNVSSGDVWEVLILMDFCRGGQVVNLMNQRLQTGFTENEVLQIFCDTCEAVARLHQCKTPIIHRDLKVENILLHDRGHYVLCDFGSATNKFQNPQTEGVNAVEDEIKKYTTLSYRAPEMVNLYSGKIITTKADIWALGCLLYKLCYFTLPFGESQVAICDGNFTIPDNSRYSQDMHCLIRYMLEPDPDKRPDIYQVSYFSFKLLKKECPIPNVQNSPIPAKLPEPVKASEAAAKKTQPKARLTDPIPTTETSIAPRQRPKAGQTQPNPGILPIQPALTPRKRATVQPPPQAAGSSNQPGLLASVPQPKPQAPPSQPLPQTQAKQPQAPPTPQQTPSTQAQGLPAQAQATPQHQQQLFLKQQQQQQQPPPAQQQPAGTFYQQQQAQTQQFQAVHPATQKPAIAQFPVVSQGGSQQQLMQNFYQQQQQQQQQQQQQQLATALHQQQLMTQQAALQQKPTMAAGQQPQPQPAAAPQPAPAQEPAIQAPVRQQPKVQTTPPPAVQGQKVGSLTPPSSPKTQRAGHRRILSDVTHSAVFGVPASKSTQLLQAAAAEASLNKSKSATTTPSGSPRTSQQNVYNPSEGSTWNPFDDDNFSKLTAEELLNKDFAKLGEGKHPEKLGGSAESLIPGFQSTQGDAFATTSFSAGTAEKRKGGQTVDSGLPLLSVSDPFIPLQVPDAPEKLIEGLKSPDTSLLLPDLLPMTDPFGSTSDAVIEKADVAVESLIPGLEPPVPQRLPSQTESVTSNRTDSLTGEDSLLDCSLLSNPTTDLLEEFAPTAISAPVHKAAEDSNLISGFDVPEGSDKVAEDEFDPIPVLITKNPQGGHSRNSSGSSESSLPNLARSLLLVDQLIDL
Series [5] addresses BMP2K (Homo sapiens, UniProt Q9NSY1). In words: NAK family TR-FRET binding displacement assay. (TR-FRET usually uses a lanthanide donor and a delayed reading to cut background.)
Series [6] concerns the target T1, GAK. Description: live cell NanoBRET target engagement assay. Format: cell-based. Particulars: nanoBRET; mean average, n = 2. For orientation: In BRET a luciferase serves as donor, and the signal depends on an acceptor being close.
A short description of series [7]: metabolite identification in mouse liver microsomes. The method, then: After centrifugation, the supernatant was subjected to analysis by LCMS, and structures of metabolites were assigned on the basis of their molecular weight and fragmentation pattern.
Compounds were incubated at a concentration of 10 µM with mouse liver microsomes in the presence of an excess of NADPH.
1.1. General Numbering of Metabolites
The metabolites are numbered according to their retention times in the gradient LC-MS analysis in positive […]
ion mode. […] The M number increases […]
consecutively for metabolites with increasing retention time.
To avoid confusion, labelled retention times of a metabolite peak in different injections are the same, which may lead to mismatch between labelled retention time and actual retention time.
General Strategy for Metabolite Identification
The vehicle control and study samples were injected into LC-MS with gradient elution using a Q1 scan method. Searching for potential metabolites was then performed using LightSight software (Applied Biosystems/MDS Sciex) by comparing a total ion current chromatogram of Q1 scan from a study sample with a chromatogram from the corresponding vehicle control sample. The study sample was then injected again to obtain the product ion spectra of potential metabolites using product ion scan methods. The fragmentation patterns of the potential metabolites were then compared to the fragmentation of the parent compound to elucidate the structures of the metabolites.
The assignment of fragments is shown
2.2. Identification of Metabolites in Mouse Liver Microsomal Incubation

Series [8] concerns the target STK16 (Homo sapiens, UniProt O75716). Description: NAK family TR-FRET binding displacement assay. Conditions: NAK family FRET screening; read-out: Binding displacement assay STK16 Ki.
Series [9] concerns the target EGFR. Conditions: read-out: EGFR KD; cited from earlier work.
Series [10] relates to CYP2A6. On the set-up: method as in PMID 18936109. Particulars: cited from earlier work.
Series [11] deals with CYP1A2. Further details: method as in PMID 18936109. Conditions: cited from earlier work.
Series [12] deals with CYP2C19. Further details: method as in PMID 18936109. Conditions: cited from earlier work.
For series [13], the system named is CYP3A4. Further details: method as in PMID 18936109. Particulars: cited from earlier work.
The test system of series [14] is CYP2C8. On the set-up: method as in PMID 18936109. Particulars: cited from earlier work.
Series [15] concerns CYP2B6. On the set-up: method as in PMID 18936109. Particulars: cited from earlier work.
Series [16] has as its system CYP2D6. Further details: method as in PMID 18936109. Particulars: cited from earlier work.
For series [17], the system named is CYP2C9. Further details: method as in PMID 18936109. Conditions: cited from earlier work.
Setting [18] is: read-out: Kinetic Solubility µM.
[19] abbreviates: read-out: Kinetic Solubility µg/mL.
[20] abbreviates: mouse liver microsomes, T1/2 (min), mouse liver microsomes with NADPH, mean average, n = 2.

Like-named read-outs stand apart in the source and are kept apart here.

BMP2K, sequence (Q9NSY1 whole entry): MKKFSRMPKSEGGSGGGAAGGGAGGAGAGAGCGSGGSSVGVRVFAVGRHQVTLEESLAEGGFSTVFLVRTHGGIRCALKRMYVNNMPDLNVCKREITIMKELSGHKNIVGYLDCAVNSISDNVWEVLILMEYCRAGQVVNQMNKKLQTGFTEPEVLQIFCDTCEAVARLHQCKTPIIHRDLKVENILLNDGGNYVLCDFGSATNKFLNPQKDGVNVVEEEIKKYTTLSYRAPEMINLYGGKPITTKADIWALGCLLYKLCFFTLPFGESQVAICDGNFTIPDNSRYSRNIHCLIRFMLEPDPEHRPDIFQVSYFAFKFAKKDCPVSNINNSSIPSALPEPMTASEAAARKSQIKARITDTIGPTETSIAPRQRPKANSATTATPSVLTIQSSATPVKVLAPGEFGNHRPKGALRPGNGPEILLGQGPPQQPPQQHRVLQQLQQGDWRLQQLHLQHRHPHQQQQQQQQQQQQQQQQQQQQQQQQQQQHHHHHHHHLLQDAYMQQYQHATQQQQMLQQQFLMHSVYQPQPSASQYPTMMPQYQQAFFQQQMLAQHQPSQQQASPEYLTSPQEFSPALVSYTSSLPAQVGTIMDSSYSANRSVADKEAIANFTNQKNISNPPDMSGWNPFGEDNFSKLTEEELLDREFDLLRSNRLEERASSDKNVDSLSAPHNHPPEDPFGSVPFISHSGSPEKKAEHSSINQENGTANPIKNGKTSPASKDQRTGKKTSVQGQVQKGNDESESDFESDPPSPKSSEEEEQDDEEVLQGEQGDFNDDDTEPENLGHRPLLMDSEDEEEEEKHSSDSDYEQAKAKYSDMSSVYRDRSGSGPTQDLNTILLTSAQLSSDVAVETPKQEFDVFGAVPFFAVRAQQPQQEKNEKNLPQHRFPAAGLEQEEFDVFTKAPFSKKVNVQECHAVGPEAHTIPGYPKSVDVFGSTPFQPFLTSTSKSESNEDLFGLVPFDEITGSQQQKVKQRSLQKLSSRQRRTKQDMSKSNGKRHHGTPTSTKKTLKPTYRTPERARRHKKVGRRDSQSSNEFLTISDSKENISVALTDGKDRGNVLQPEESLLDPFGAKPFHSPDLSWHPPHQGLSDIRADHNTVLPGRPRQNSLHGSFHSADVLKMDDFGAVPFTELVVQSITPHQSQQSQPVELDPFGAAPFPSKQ
STK16, sequence (O75716 whole entry): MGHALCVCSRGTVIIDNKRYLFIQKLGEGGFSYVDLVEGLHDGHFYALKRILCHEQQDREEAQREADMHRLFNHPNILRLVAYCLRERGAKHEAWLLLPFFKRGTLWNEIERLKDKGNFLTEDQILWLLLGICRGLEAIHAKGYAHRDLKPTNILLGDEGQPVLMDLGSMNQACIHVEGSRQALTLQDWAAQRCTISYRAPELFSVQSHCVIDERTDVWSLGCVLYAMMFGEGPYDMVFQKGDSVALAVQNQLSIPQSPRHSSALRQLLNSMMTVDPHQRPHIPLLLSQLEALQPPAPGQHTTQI

Regarding `Brc1ccc2nccc(Nc3cccc4c3OCO4)c2c1` [Compound 9, N-(Benzo[d][1,3]dioxol-4-yl)-6-bromoquinolin-4-amine], the solubility kinetic in [1] (setting [18]) came out at 7.3 µM; in series [1] (setting [19]), 2.5 µg/mL. In addition, the Ki (in general, a measure of affinity in units of concentration, obtained from inhibition or displacement) in [2] was 1.9 nM; in series [4], > 100 µM; in series [5] it was > 100 µM; in series [8], > 100 µM. Further, the “T1/2 Ratio (+) ABT” value in series [3] (mouse liver microsomes, (+) ABT, normalized to propranolol) is on record as 0.13. Moreover, in series [3] (mouse liver microsomes, (−) ABT, normalized to propranolol), the “T1/2 Ratio (−) ABT” value turned out to be 0.05. Moreover, the “T1/2 Ratio” value in series [3] (mouse liver microsomes) came to 1.9. The CLint scaled (in general, a measure of how fast metabolising enzymes remove a compound, apart from limits set by blood flow) in [3] (mouse liver microsomes, Clint (mL/min/kg) (+) ABT, mouse liver microsomes, (+) ABT) was 3140 mL/min/kg; in [3] (mouse liver microsomes, Clint (mL/min/kg) (−) ABT, (−) ABT), 7610 mL/min/kg. Further, the half-life (commonly the time in which the quantity being followed falls by half) in [3] (mouse liver microsomes, T1/2 (min) (+) ABT, mouse liver microsomes, (+) ABT, mean average, n = 2) came to 1.8 min; in series [3] (mouse liver microsomes, T1/2 (min) (−) ABT, (−) ABT, mean average, n = 2), 0.74 min; in series [3] (setting [20]), 8.9 min. Moreover, the IC50 (usually the concentration needed to halve the response being measured) in series [6] worked out at 22 nM. In series [7], the “Primary Metabolism Site” value was “Aniline”. In [7], the “Primary Metabolite Mass” value was “Parent + O”.
Consider `Fc1ccc(F)c(Nc2ccnc3ccc(Br)cc23)c1` [Compound 10, 6-Bromo-N-(2,5-difluorophenyl)quinolin-4-amine], for which the values for the solubility kinetic in [1] (setting [18]) and in series [1] (setting [19]) were 2.2 µM and 0.7 µg/mL, respectively. The Ki in [2] is 15 nM; in series [4], 3.8 µM; in series [5] it was 9.8 µM; in series [8], 6.2 µM. Further, in series [3] (mouse liver microsomes), the “T1/2 Ratio” value is listed as 0.17. In addition, the half-life in series [3] (setting [20]) turned out to be 1.7 min. In addition, in series [6], the midpoint of inhibition, the IC50, lay at 870 nM. For the same compound, the “Primary Metabolism Site” value in series [7] is “Aniline”. Besides, in series [7], the “Primary Metabolite Mass” value was “Parent + O”.
In the case of `C#Cc1cccc(Nc2ncnc3cc(OCCOC)c(OCCOC)cc23)c1` [Erlotinib, erlotinib], the Kd (as a rule, the concentration at which binding is half-saturated) in [9] is 0.7 nM.
Consider `Nn1nnc2ccccc21` [ABT, 1-aminobenzotriazole], for which the “inhibition of CYP2A6 activity” value in series [10] is 100%. In [11], the “residual activity CYP1A2” value is “up to 20%”. Also, the “residual activity CYP2C19” value in [12] is recorded as “up to 20%”. The “inhibition of CYP3A4 activity” value in series [13] is 100%. The “residual activity CYP2C8” value in [14] is given as “up to 20%”. Further, the “residual activity CYP2B6” value in [15] was “up to 20%”. Moreover, the “residual activity CYP2D6” value in series [16] was “up to 20%”. The CYP2C9 activity remaining in series [17] was 60%.
For the compound `COc1cc(Nc2ccnc3ccc(C(F)(F)F)cc23)cc(OC)c1OC` [Compound 13], the “T1/2” value in [3] (mouse liver microsomes with NADPH, mean average, n = 2) is given as 6.4 min. Further, the Ki in series [4] was 54 µM; in series [5] (NAK family FRET screening, read-out: Binding displacement assay BMP2K Ki), > 100 µM; in series [8], 17 µM. The “Primary Metabolism Site” value in series [7] was “Aniline”. In [7], the “Primary Metabolite Mass” value is “Parent + O”.
Consider `Brc1ccc2nccc(Nc3cccc4scnc34)c2c1` [Compound 25, N-(6-Bromoquinolin-4-yl)benzo[d]thiazol-4-amine], for which the solubility kinetic in series [1] (setting [18]) turned out to be 1.1 µM; in series [1] (setting [19]), 0.4 µg/mL. Moreover, the Ki is 26 nM in series [2], 1.2 µM in series [4], > 100 µM in series [5] and > 100 µM in series [8]. Also, in series [3] (mouse liver microsomes), the “T1/2 Ratio” value turned out to be 0.32. This compound also showed a half-life in series [3] (setting [20]) of 2.6 min. The IC50 in series [6] was > 5000 nM.
With `Fc1ccc(Nc2ccnc3ccc(Br)cc23)c(F)c1` [Compound 11, 6-Bromo-N-(2,4-difluorophenyl)quinolin-4-amine], the values for the solubility kinetic in series [1] (setting [18]) and in [1] (setting [19]) were 39.5 µM and 13.2 µg/mL, respectively. The Ki in [2] came out at 35 nM; in [4], 5.7 µM; in [5], 18 µM; in series [8] it was 11 µM. Moreover, the “T1/2 Ratio” value in series [3] (mouse liver microsomes) came out at 0.47. This compound came in with a half-life in [3] (setting [20]) of 3.2 min. It took 2700 nM to reach half-maximal inhibition in [6] (IC50). Further, in series [7], the “Primary Metabolism Site” value is “Aniline”. The “Primary Metabolite Mass” value in series [7] is recorded as “Parent − F + OH”.
